Assay results as given in patent US4476114A, “Iron-selenium preparation” (Orion-yhtyma Oy, priority 1982, dated 1984).
Where “and” joins values, the source holds several entries; their conditions need not be identical. Equal entries are not always repeated.

Experiments:
[1] = in words; background statement; cited from earlier work
[2] = Serum selenium content in selenium-deficient pigs (Table 1); assay type: in vivo; conditions: 0.06 mg Se/kg i.m.
Description: (§1) The new type of preparation containing sodium selenite and ferric dextran was administered intramuscularly to three pigs, weight 15 . . . 25 kg, suffering from selenium deficiency. Another three pigs suffering from selenium deficiency were given the same dose of sodium selenite. Serum selenium content and glutathione peroxidase enzyme activity were determined as a measure of the bioactivity of selenium in the organism. […] All the pigs were on the same diet throughout the test period.
(§2) Animals 1, 2 and 3 received 0.06 mg Se per kg body weight intramuscularly
(§3) Animals 4, 5 and 6 received 0.06 mg Se per kg body weight intramuscularly
(§4) as sodium selenite combined with ferric dextran, 200 mg Fe per dose.

glutathione peroxidase [3] = experiment: Serum glutathione peroxidase (gSH-Px) activity in selenium-deficient pigs (Table 1); assay type: in vivo
Description: as §1, §2, §3, §4

[4] = Serum selenium level in newborn piglets (Table 2); assay type: in vivo
Description: (§5) Six newborn piglets weighing about 1 kg were given an intramuscular dose of 2 ml of the new iron-selenium preparation, each ml containing 100 mg Fe^+3 as ferric dextran and 0.15 mg Se^+4 as sodium selenite. […] This was in spite of the fact that the animals were fed on milk from a sow kept on a low-selenium diet during this period. Five similar piglets, given the same diet, formed the control group. The control animals were given 200 mg Fe^+3 ferric dextran intramuscularly at the same time as injection of the test group. Four weeks later, mean selenium levels of 55.4 ng/ml and a mean glutathione perioxidase activity of 710.8 IU/l were found in their serum. The differences between the mean values of the test group and the control group were statistically significant, the glutathione peroxidase difference at the 99% confidence interval and the Se difference at the 95% interval (Wilcoxson-Mann-Whitney rank sum test).
(§6) 0.3 mg/Se/kg together with 200 mg Fe^+3

glutathione peroxidase [5] = experiment: Serum glutathione peroxidase activity in newborn piglets (Table 2); assay type: in vivo
Description: as §5, §6

[6] = Growth (weight increase) of piglets injected at three days; assay type: in vivo; conditions: in words; 200 mg Fe^+3 per animal; 3 weeks
Description: (§7) In another study, two sows were kept on a low-selenium diet during the last four weeks of pregnancy and during lactation. The 25 piglets born alive were divided at the age of three days into two groups (12+13), both groups containing piglets from both sows. Blood samples were taken from all piglets for determination of selenium and glutathione peroxidase values and for blood cell counts. The test group (13 piglets) were given a subcutaneous injection of 200 mg (2 ml) Fe^+3 as ferric dextran, to which sodium selenite had been added to give a Se^+4 content of 0.15 mg/ml. The control group (12) received 200 mg Fe^+3 as ferric dextran without Se^+4. One piglet in the control group later died. After eight days, blood samples were taken from all piglets. […] The difference was statistically significant at the 95% confidence interval using the non-parametric Wilcoxson-Mann-Whitney rank sum test. […] This is an important finding that will play a major role in both human and veterinary medicine. The use of selenium in combination with iron is likely to increase considerably. […] Selenium is probably stored as an iron-selenium complex, which explains the unexpected sufficiency of a single dose given at an early stage up to a weight of about 8 . . . 10 kg.

erythrocyte count = experiment: Increase in erythrocyte count in piglets, electronic counter; assay type: in vivo; conditions: eight days after injection of 200 mg Fe^+3 as ferric dextran, with or without Se^+4 0.15 mg/ml (2 ml, s.c. in test group); difference significant at 95% confidence interval
Description: as §7

[7] = Serum selenium maintenance / selenium sufficiency in piglets injected at three days; assay type: in vivo; conditions: in words; 200 mg Fe^+3 per animal; 3 weeks
Description: as §7

[8] = in words, four weeks after treatment
[9] = mean of five control piglets, serum, four weeks later, 200 mg Fe^+3 ferric dextran i.m.

Molecule: O=[Se]([O-])[O-].[Na+].[Na+] [sodium selenite]
- elimination of selenium from the organism [1]: rapidly eliminated
- half-life of selenium in the organism [1]: short
- serum selenium level over 15 days ([2]; in words): remained elevated for only 8 days
- Mean Se, 0-sample ([2]; mean of 3 pigs, serum, 0-sample (before dosing)): 23 ng/mL
- Mean Se at day 8 ([2]; mean of 3 pigs, serum, day 8, 11520 min): 49 ng/mL
- Mean Se at day 15 ([2]; mean of 3 pigs, serum, day 15, 21600 min): 35 ng/mL
- gSH-Px, 0-sample (glutathione peroxidase [3]; individual pigs, 0-sample (before dosing), 0.06 mg Se/kg i.m., with ferric dextran 200 mg Fe per dose for animals 4-6): 373 IU/l and 298 IU/l and 325 IU/l
- gSH-Px at day 8 (glutathione peroxidase [3]; individual pigs, day 8, 0.06 mg Se/kg i.m., with ferric dextran 200 mg Fe per dose for animals 4-6): 1065 IU/l and 796 IU/l and 926 IU/l
- gSH-Px at day 15 (glutathione peroxidase [3]; individual pigs, day 15, 0.06 mg Se/kg i.m., with ferric dextran 200 mg Fe per dose for animals 4-6): 632 IU/l and 437 IU/l and 484 IU/l
- Mean gSH-Px, 0-sample (glutathione peroxidase [3]; mean of 3 pigs, 0-sample (before dosing), 0.06 mg Se/kg i.m.): 332 IU/l
- Mean gSH-Px at day 8 (glutathione peroxidase [3]; mean of 3 pigs, day 8, 0.06 mg Se/kg i.m.): 926 IU/l
- Mean gSH-Px at day 15 (glutathione peroxidase [3]; mean of 3 pigs, day 15, 0.06 mg Se/kg i.m.): 518 IU/l

Molecule: ferric dextran
- serum level of selenium four weeks later [4, 8]: indicate a deficiency state
- mean selenium level, control group [4, 9]: 55.4 ng/mL
- serum level of glutathione peroxidase four weeks later (glutathione peroxidase [5]; [8]): indicate a deficiency state
- mean glutathione peroxidase activity, control group (glutathione peroxidase [5]; [9]): 710.8 IU/l
- weight increase of control animals [6]: retardation in weight increase
- mean increase in the erythrocyte count (erythrocyte count): 1.41±0.30 10^12 /l
- selenium status of control animals [7]: severe selenium deficiency
